# According to patent publication US20230167406A1, “COMPOSITIONS AND METHODS OF PROMOTING MYELINATION” (The Children's Medical Center Corporation, priority 2020, published 2023):
# “Also recorded” adds a separate entry of the source. Where a name gives a salt, the structure may show the parent alone.
# What was measured:
# [1] = test system: proliferating OPCs in injured optic nerves; assay: In vivo compound screening for OPC differentiation (BrdU+/CC1+ cells) after optic nerve crush; design: species or system mouse; settings: wild type C57BL/6 mice; for number of BrdU+ and CC1+ double positive cells (OPC differentiation) in injured optic nerves: compound once daily for 4 weeks from day 1 post optic nerve crush, BrdU daily days 4-10; for pro-differentiation effect compared with the other screened compounds: 4 week treatment after optic nerve crush
# [2] = test system: OPCs and their progenies in injured optic nerves; assay: OPC lineage tracing (CC1/Oligo1 staining of RTM+ cells) in PDGFRα-CreER/iRTM mice after optic nerve crush; format: in vivo, mouse
# Excerpt: To trace the progenies of OPCs, a different reporter mouse line was utilized, namely PDGFRα-CreER (Kang et al., Neuron 68, 668-681, 2010) crossed with Rosa26-STOP-Tomato mice, or PDGFRα-CreER/iRTM mice (Arenkiel et al., 2011). Upon tamoxifen administration, Cre expression is induced in PDGFRα^+ OPCs, leading to RTM expression not only in these OPCs but also their differentiated progenies. To monitor their differentiation, two well-documented markers were used, namely CC1 and Oligo1. CC1 is a marker for all differentiated cells from OPCs. The translocation of Oligo1 from the nucleus to the cytoplasm has been implicated as a hallmark of late differentiation into myelinating oligodendrocytes. Therefore, with these immunohistochemistry assessments, these cells could be separated into three stages: un-differentiated OPCs (CC1^− and nuclear Oligo1), early differentiated OPCs (CC1+ and nuclear Oligo1) and mature oligodendrocytes (CC1^+ and cytoplasmic Oligo1) (FIG. 111).
# Immediately prior to optic nerve crush, tamoxifen was injected into PDGFRα-CreER/iRTM mice in order to label pre-existing OPCs (Young et al., Neuron 77, 873-885, 2013). Then, the fate of labeled OPCs was examined by immunohistochemistry with anti-CC1 and anti-Oligo1 at 4 weeks after injury (FIG. 1I).
# As the majority of OPC proliferation occurs in the first week after injury (FIG. 1), it was hypothesized that a delayed PLX3397 treatment at 2-4 weeks after injury could bypass their inhibition on proliferation, permitting assessment of its effects on OPC differentiation. To do this, a separate experiment was performed in which PLX3397 was administered from 2 to 4 weeks after injury in PDGFRα-CreER:iRTM mice as used in FIGS. 1G-1M, 3L.
# For PDGFRα-CreER mice, Tamoxifen (100 mg/kg, p.o.) was administered for 5 days right before optic nerve crush. […] Pexidartinib (PLX 3397) was mixed in food chow at 290 mg/kg by LabDiet laboratory animal nutrition.
# [3] = test system: regenerated axons in injured optic nerves; assay: Electron microscopy of myelination of regenerated axons in injured optic nerves; format: in vivo, mouse; settings: 4 weeks after injury; for regenerated axons that became myelinated: Montelukast dpi1-28 and/or PLX3397 dpi15-28
# Experimental: To do this, AAVs expressing osteopontin/IGF1/CNTF were injected into the vitreous bodies of PDGFRα-CreER:iRTM mice to activate the intrinsic regenerative ability of RGCs and optic nerve injury was performed in 2 weeks. These mice were then treated with Montelukast (for 4 weeks from dpi1 to dpi28) and/or PLX3397 (for two weeks during dpi 15-28).
# Mice were perfused with 4% paraformaldehyde with 2.5% glutaraldehyde in 0.1 M sodium cacodylate buffer, pH 7.2. Optic nerves were dissected and fixed in the same fixative solution overnight. Samples were then processed by the Harvard EM core based on the following procedure: nerves were rinsed in PBS, postfixed in 1% OsO4 in PBS for 1 h, dehydrated in a graded ethanol series, infiltrated with propylene oxide, and embedded in Epon. Semithin sections were stained with toluidine blue, and ultrathin sections were stained with lead citrate. Ultrathin sections were taken under JEOL 1200EX-80 kV electron microscope. The number of myelinated axons per nerve was analyzed in ultrathin sections at magnification 3,000× to 20,000×.
# [4] = test system: activated microglia in injured optic nerves; assay: Microglia depletion in injured optic nerves (CD68 immunoreactivity); format: in vivo, mouse; settings: systemic application (food chow)
# Excerpt: FIG. 3G comprises representative images of optic nerves, from adult mice 2 weeks after unilateral optic nerve crush injury and with or without PLX3397 treatment, stained with antibodies against CD68. Scale bar: 40 μm.
# FIG. 3H is a graph quantifying the CD68 immunoreactivity signal. […] mice per group. Scale bar: 40 μm. *, **, *** p<0.05, 0.01, 0.001, respectively.
# (§1) Thus, it appears that microglia activation is required for injury-induced OPC proliferation.
# For PDGFRα-CreER mice, Tamoxifen (100 mg/kg, p.o.) was administered for 5 days right before optic nerve crush. For OPC proliferation assays, BrdU (100 mg/kg, i.p.) was injected at 3 hours before sample collection. […]
# (§2) Cryosections (12-μm thick) were permeabilized and blocked in blocking buffer (0.5% Triton X-100 and 5% normal goat serum in PBS) for 1 h at room temperature and overlaid with primary antibodies overnight at 4° C. […] For each biological sample, 3-5 sections of each optic nerve were imaged under 10× or 20×objectives for quantification. Positive cell numbers were then quantified manually using the Plugins/Analyze/Cell Counter function in ImageJ software. For fluorescent intensity analysis, the images were first converted to 8-bit depth in ImageJ software and then, the mean intensity value was calculated by the build-in function: Analyze/Measure.
# [5] = test system: OPCs in injured optic nerves; assay: OPC proliferation by BrdU/GFP/Olig2 labeling in PDGFRα-H2B-GFP mice; format: in vivo, mouse; settings: PLX3397 from 7 days before crush, examined 14 days after injury
# Experimental: FIG. 3I is a schematic of experiments to assess OPC proliferation with the treatment of PLX3397 (PLX) or its vehicle control (Vec) in PDGFRα-H2B-GFP mice. […]
# as §1
# For PDGFRα-CreER mice, Tamoxifen (100 mg/kg, p.o.) was administered for 5 days right before optic nerve crush. For OPC proliferation assays, BrdU (100 mg/kg, i.p.) was injected at 3 hours before sample collection. For drug screening assays, BrdU was injected daily from day 4 to day 10 post optic nerve crush. Each compound or the corresponding Vehicle was administered once daily for 4 weeks started from day 1 post optic nerve crush (Table 2). […]
# as §2
# [6] = test system: OPCs distal to the optic nerve injury; assay: TNFα inhibitor treatment after optic nerve injury (BrdU/CC1/Olig2 staining, lineage reporter mice); format: in vivo, mouse
# Excerpt: The morphology is very distinct from other treatments, such as GPR17 antagonist treatment (FIG. 5E).
# [7] = PDGFRα-CreER/iRTM mice, Montelukast treatment for 4 weeks
# [8] = PDGFRα-CreER:iRTM mice, delayed treatment from 2 to 4 weeks after injury
smiles,measurement,setting,value
C=C(c1ccc(C(=O)O)cc1)c1cc2c(cc1C)C(C)(C)CCC2(C)C [Bexarotene],number of BrdU+ and CC1+ double positive cells (OPC differentiation) in injured optic nerves,[1],"increased CC1^+ cells, albeit the increase did not reach statistical differences"
CC(C)(O)c1ccccc1CC[C@@H](SCC1(CC(=O)O)CC1)c1cccc(/C=C/c2ccc3ccc(Cl)cc3n2)c1 [Montelukast],pro-differentiation effect compared with the other screened compounds,[1],strongest effect
same,pro-differentiation effect compared with the other screened compounds,[1]; listed as montelukast,strongest
same,number of BrdU+ and CC1+ double positive cells (OPC differentiation) in injured optic nerves,[1],significantly increased
same,"proportion of CC1+RTM+ cells with nuclear, but not cytoplasmic, Oligo1 immunoreactivity",[2]; [7],77%
same,total RTM+ cell numbers,[2]; [7],increased
same,proportion of RFP+ (RTM+) cells that became CC1+,"[2]; PDGFRα-CreER/iRTM mice, Montelukast treatment for 4 weeks after optic nerve injury, 12% in vehicle-treated mice",64%
same,thickness of myelin structures,[3],much thinner than those after PLX treatment
same,regenerated axons that became myelinated,[3],about 20%
"FC(F)(F)c1ccc(CNc2ccc(Cc3c[nH]c4ncc(Cl)cc34)cn2)cn1 [PLX3397, Pexidartinib]",CC1+ cells,[2]; [8],increased
same,proportion of CC1+RTM+ cells expressing cytoplasmic Oligo1,[2]; [8],78%
same,depletion of microglia in vivo (CD68),[4],depleted; also recorded: specifically deplete microglia
same,total numbers of OPCs,[5],profoundly reduced
same,regenerated axons that became myelinated,[3],about 20%
O=C(Nc1cccc2c(=O)cc(-c3nn[nH]n3)oc12)c1ccc(OCCCCc2ccccc2)cc1 [Pranlukast],number of BrdU+ and CC1+ double positive cells (OPC differentiation) in injured optic nerves,[1],increased OPC differentiation but did not reach statistical significance
"O=C(O)CCC(=O)O.O=C(O[C@H]1CN2CCC1CC2)N1CCc2ccccc2[C@@H]1c1ccccc1 [Solifenacin, Solifenacin succinate]",number of BrdU+ and CC1+ double positive cells (OPC differentiation) in injured optic nerves,[1],significantly increased
same,number of BrdU+ and CC1+ double positive cells (OPC differentiation) in injured optic nerves,[1]; listed as solifenacin,significantly increased OPC differentiation
O=C1CCC(N2C(=O)c3ccccc3C2=O)C(=O)N1 (stereo not shown) [Thalidomide],differentiation of OPCs in lineage reporter mice,"[6]; PDGFRα-CreER/iRTM lineage reporter mice, 2 to 4 weeks post-injury",OPCs differentiated into mature myelinating oligodendrocytes
same,BrdU+/CC1+/Olig2+ cells distal to the injury,[6]; administered from 2 weeks to 4 weeks post-injury,robust increase
"CN1C2CCC1CC(OC(c1ccccc1)c1ccccc1)C2 (stereo not shown) [benztropine mesylate, Benztropine mesylate]",number of BrdU+ and CC1+ double positive cells (OPC differentiation) in injured optic nerves,[1],significantly increased
same,number of BrdU+ and CC1+ double positive cells (OPC differentiation) in injured optic nerves,[1]; listed as benztropine,significantly increased OPC differentiation
"CN1CCC[C@@H]1CCO[C@](C)(c1ccccc1)c1ccc(Cl)cc1.O=C(O)/C=C/C(=O)O [clemastine, Clemastine fumarate]",number of BrdU+ and CC1+ double positive cells (OPC differentiation) in injured optic nerves,[1],"increased CC1^+ cells, albeit the increase did not reach statistical differences"
